Values after ≈ are worked out from the molar mass of the structure shown. Like-named read-outs stand apart in the source and are kept apart here.
Experiments:
[1] = tested on: Mycobacterium tuberculosis H37Rv; experiment: In vitro assay for antimicrobial susceptibility (microplate Alamar blue, MIC); format: cell-based; conditions: Mycobacterium tuberculosis, read-out: MIC (μg/mL) against H37Rv
[2] = tested on: mitochondrial protein synthesis (MPS) in H9C2 cells; experiment: In vitro assay for MPS inhibition (COX-1 / SDH-A ELISA in H9C2 cells); format: cell-based, rat; conditions: Rattus norvegicus, read-out: IC50 (μM) MPS inhibition
[3] = M. tuberculosis H37Rv, 7H9 broth, Alamar blue
[4] = 120 h, H9C2 cells, 5 days incubation

| Compound | MIC ([1]; H37RV) | IC50 ([2]; H9c2, 120 h) | MIC [1, 3] | IC50 [2, 4] |
| --- | --- | --- | --- | --- |
| CCCC(=O)NC[C@H]1CN(c2ccc(N3[C@@H]4CC[C@H]3C[S+]([O-])C4)c(F)c2)C(=O)O1 (stereo partly drawn) [OBD-017, N-(((5S)-3-(3-Fluoro-4-((1R,5S)-3-oxido-3-thia-8-azabicyclo[3.2.1]octan-8-yl)phenyl)-2-oxooxazolidin-5-yl)methyl)butyramide] | 5.8 to 6.3 µg/mL (≈ 13.7 to 14.9 µM) | 41 µM | – | – |
| CCCC(=O)NC[C@H]1CN(c2cc(F)c(N3C4CCC3CSC4)c(F)c2)C(=O)O1 [OBD-029, N—(((S)-3-(4-(3-thia-8-aza-bicyclo[3.2.1]octan-8-yl)-3,5-difluorophenyl)-2-oxooxazolidin-5-yl)methyl)butyramide] | 0.11 µg/mL (≈ 0.259 µM) | > 100 µM | – | – |
| CC(=O)NC[C@H]1CN(c2cc(F)c(N3CC4CCC(C3)O4)c(F)c2)C(=O)O1 [OBD-048] | – | – | 0.39 µg/mL (≈ 1.02 µM) | 5 µM |
| CC(=O)NC[C@H]1CN(c2cc(F)c(N3C4CCC3COC4)c(F)c2)C(=O)O1 [OBD-051] | 0.6 µg/mL (≈ 1.57 µM) | 6 µM | – | – |
| COC(=O)NC[C@H]1CN(c2cc(F)c(N3C4CCC3COC4)c(F)c2)C(=O)O1 [OBD-052] | 0.95 µg/mL (≈ 2.39 µM) | 13 µM | – | – |
| O=C1OC(Cn2ccnn2)CN1c1cc(F)c(N2CC3CCC(C2)O3)c(F)c1 (stereo not shown) [OBD-054, 5-((1H-1,2,3-triazol-1-yl)methyl)-3-(4-(8-oxa-3-aza-bicyclo[3.2.1]octan-3-yl)-3,5-difluorophenyl)oxazolidin-2-one] | – | – | 0.5 µg/mL (≈ 1.28 µM) | 6 to 31 µM |
| O=C1O[C@@H](Cn2ccnn2)CN1c1cc(F)c(N2C3CCC2COC3)c(F)c1 [OBD-055, (5R)-5-((1H-1,2,3-triazol-1-yl)methyl)-3-(4-(3-oxa-8-aza-bicyclo[3.2.1]octan-8-yl)-3,5-difluorophenyl)oxazolidin-2-one] | 1.3 µg/mL (≈ 3.32 µM) | 15 µM | – | – |
| O=C1O[C@@H](CNc2ccon2)CN1c1ccc(N2CC3(COC3)C2)c(F)c1 [OBD-056] | – | – | 1.9 µg/mL (≈ 5.08 µM) | 17 µM |
| NC[C@H]1CN(c2ccc(N3CC4(COC4)C3)c(F)c2)C(=O)O1 [OBD-057] | – | – | 0.4 µg/mL (≈ 1.3 µM) | 67 µM |
| O=C1O[C@@H](CNc2ccon2)CN1c1cc(F)c(N2CC3(COC3)C2)c(F)c1 [OBD-061] | – | – | 0.8 µg/mL (≈ 2.04 µM) | 29 µM |
| NC[C@H]1CN(c2ccc(N3C4CCC3CSC4)c(F)c2)C(=O)O1 [OBD-081, (5S)-3-(4-(3-thia-8-aza-bicyclo[3.2.1]octan-8-yl)-3-fluorophenyl)-5-(aminomethyl)oxazolidin-2-one] | 0.47 µg/mL (≈ 1.39 µM) | 77 µM | – | – |
| NC[C@H]1CN(c2cc(F)c(N3C4CCC3CSC4)c(F)c2)C(=O)O1 [OBD-083, (5S)-3-(4-(3-thia-8-aza-bicyclo[3.2.1]octan-8-yl)-3,5-difluorophenyl)-5-(aminomethyl)oxazolidin-2-one] | 0.05 µg/mL (≈ 0.141 µM) | 20 µM | – | – |
| NC[C@H]1CN(c2ccc(N3C4CCC3C[S+]([O-])C4)c(F)c2)C(=O)O1 (stereo partly shown) [OBD-085] | 1.1 µg/mL (≈ 3.11 µM) | > 100 µM | – | – |
| NC[C@H]1CN(c2cc(F)c(N3C4CCC3C[S+]([O-])C4)c(F)c2)C(=O)O1 (stereo partly shown) [OBD-087] | 0.86 µg/mL (≈ 2.32 µM) | > 100 µM | – | – |
| CC(=O)NC[C@H]1CN(c2ccc(N3CC4CCC(C3)O4)c(F)c2)C(=O)O1 [OBD-110] | – | – | 0.45 µg/mL (≈ 1.24 µM) | 7 µM |
| COC(=O)NC[C@H]1CN(c2ccc(N3CC4CCC(C3)O4)c(F)c2)C(=O)O1 [OBD-111] | – | – | 0.49 µg/mL (≈ 1.29 µM) | 7 µM |
| O=C1O[C@@H](CO)CN1c1ccc(N2CC3CCC(C2)O3)c(F)c1 [OBD-112, 3-(4-(8-oxa-3-aza-bicyclo[3.2.1]octan-3-yl)-3-fluorophenyl)-5-(hydroxymethyl)oxazolidin-2-one] | – | – | 3.5 µg/mL (≈ 10.9 µM) | > 100 µM |
| NC[C@H]1CN(c2ccc(N3CC4CCC(C3)O4)c(F)c2)C(=O)O1 [OBD-113, 3-(4-(8-oxa-3-aza-bicyclo[3.2.1]octan-3-yl)-3-fluorophenyl)-5-(aminomethyl)oxazolidin-2-one] | – | – | 0.39 µg/mL (≈ 1.21 µM) | > 100 µM |
| O=C1O[C@@H](CO)CN1c1cc(F)c(N2CC3CCC(C2)O3)c(F)c1 [OBD-114, 3-(4-(8-oxa-3-aza-bicyclo[3.2.1]octan-3-yl)-3,5-difluorophenyl)-5-(hydroxymethyl)oxazolidin-2-one] | – | – | 1.7 µg/mL (≈ 5 µM) | > 100 µM |
| CCCC(=O)NC[C@H]1CN(c2cc(F)c(N3C4CCC3C[S+]([O-])C4)c(F)c2)C(=O)O1 (stereo partly shown) [OBD-242] | 0.61 µg/mL (≈ 1.38 µM) | > 100 µM | – | – |
| O=C(NC[C@H]1CN(c2cc(F)c(N3CC4CCC(C3)O4)c(F)c2)C(=O)O1)C1CC1 [OBD-252] | – | – | 0.47 µg/mL (≈ 1.15 µM) | 32.3 µM |

| Compound | MIC ([1]; H37RV) | IC50 ([2]; H9c2, 120 h) | MIC [1, 3] | IC50 [2, 4] |
| --- | --- | --- | --- | --- |
| O=C(NC[C@H]1CN(c2cc(F)c(N3CC4CCC(C3)O4)c(F)c2)C(=O)O1)C1CCC1 [OBD-253] | – | – | 0.53 µg/mL (≈ 1.26 µM) | 65 µM |
| CCCC(=O)NC[C@H]1CN(c2cc(F)c(N3CC4CCC(C3)O4)c(F)c2)C(=O)O1 [OBD-254] | – | – | 0.73 µg/mL (≈ 1.78 µM) | 36 µM |
| O=C1O[C@@H](Cn2nccn2)CN1c1ccc(N2CCCSCC2)c(F)c1 [OTB-106, (R)-5-[(2H-1,2,3-Triazol-2-yl)methyl]-3-[3-fluoro-4-(1,4-thiazepan-4-yl)phenyl]oxazolidin-2-one] | – | – | 2 µg/mL (≈ 5.3 µM) | > 100 µM |
| O=C1O[C@@H](Cn2ccnn2)CN1c1ccc(N2CCCSCC2)c(F)c1 [OTB-107, (R)-5-[(1H-1,2,3-Triazol-1-yl)methyl]-3-[3-fluoro-4-(1,4-thiazepan-4-yl)phenyl]oxazolidin-2-one] | – | – | 0.03 µg/mL (≈ 0.0795 µM) | 84.9 µM |
| CCCC(=O)OC[C@H]1CN(c2ccc(N3CCCSCC3)c(F)c2)C(=O)O1 [OTB-108, (R)-[3-[3-Fluoro-4-(1,4-thiazepan-4-yl)phenyl]-2-oxo-5-oxazolidinyl]methyl butyrate] | – | – | 0.125 µg/mL (≈ 0.315 µM) | > 100 µM |
| CCCC(=O)OC[C@H]1CN(c2ccc(N3CCCSCCC3)c(F)c2)C(=O)O1 [OTB-110, (R)-[3-[3-Fluoro-4-(1,5-thiazocan-5-yl)phenyl]-2-oxo-5-oxazolidinyl]methyl butyrate] | – | – | 0.125 µg/mL (≈ 0.304 µM) | > 100 µM |
| O=C(NC[C@H]1CN(c2ccc(N3CCCSCC3)c(F)c2)C(=O)O1)c1ccco1 [OTB-111, (S)—N-[(3-[3-Fluoro-4-(1,4-thiazepan-4-yl)phenyl]-2-oxo-oxazolidin-5-yl)methyl]furan-2-carboxamide] | – | – | 0.125 µg/mL (≈ 0.298 µM) | 60.3 µM |
| O=C(NC[C@H]1CN(c2ccc(N3CCCSCC3)c(F)c2)C(=O)O1)c1cccs1 [OTB-112, (S)—N-[(3-[3-Fluoro-4-(1,4-thiazepan-4-yl)phenyl]-2-oxo-oxazolidin-5-yl)methyl]thiophene-2-carboxamide] | – | – | 0.5 µg/mL (≈ 1.15 µM) | > 100 µM |
| O=C1O[C@@H](Cn2nccn2)CN1c1ccc(N2CCCSCCC2)c(F)c1 [OTB-113, (R)-5-[(2H-1,2,3-triazol-2-yl)methyl]-3-[3-fluoro-4-(1,5-thiazocan-5-yl)phenyl]oxazolidin-2-one] | – | – | 2 µg/mL (≈ 5.11 µM) | > 100 µM |
| CC(=O)NC[C@H]1CN(c2ccc(N3CCCSCCC3)c(F)c2)C(=O)O1 [OTB-114, (S)—N-((3-(3-fluoro-4-(1,5-thiazocan-5-yl)phenyl)-2-oxooxazolidin-5-yl)methyl)acetamide] | – | – | 0.05 to 0.11 µg/mL (≈ 0.131 to 0.288 µM) | 28 to 29 µM |
| CC(C)(C)C(=O)NC[C@H]1CN(c2ccc(N3CCCSCC3)c(F)c2)C(=O)O1 [OTB-115, (S)—N-[[3-(3-Fluoro-4-(1,4-thiazepan-4-yl)phenyl)-2-oxo-oxazolidin-5-yl]methyl]pivalamide] | – | – | 3.73 µg/mL (≈ 9.12 µM) | > 100 µM |
| CCCCS(=O)(=O)NC[C@H]1CN(c2ccc(N3CCCSCC3)c(F)c2)C(=O)O1 [OTB-116, (R)—N-[[3-(3-Fluoro-4-(1,4-thiazepan-4-yl)phenyl)-2-oxo-oxazolidin-5-yl]methyl]butane-1-sulfonamide] | – | – | 3.81 µg/mL (≈ 8.56 µM) | > 100 µM |
| O=C(NC[C@H]1CN(c2ccc(N3CCCSCCC3)c(F)c2)C(=O)O1)c1ccco1 [OTB-117, (S)—N-[[3-(3-Fluoro-4-(1,5-thiazocan-5-yl)phenyl)-2-oxo-oxazolidin-5-yl]methyl]furan-2-carboxamide] | – | – | 0.665 µg/mL (≈ 1.53 µM) | 56.3 µM |
| O=C1O[C@@H](Cn2cncn2)CN1c1ccc(N2CCCSCC2)c(F)c1 [OTB-119, (R)-5-[(1H-1,2,4-Triazol-1-yl)methyl]-3-[3-fluoro-4-(1,4-thiazepan-4-yl)phenyl]oxazolidin-2-one] | – | – | 0.456 µg/mL (≈ 1.21 µM) | > 100 µM |
| CCCCS(=O)(=O)NC[C@H]1CN(c2ccc(N3CCCSCCC3)c(F)c2)C(=O)O1 [OTB-120, (R)—N-[[3-(3-Fluoro-4-(1,5-thiazocan-5-yl)phenyl)-2-oxo-oxazolidin-5-yl]methyl]butane-1-sulfonamide] | – | – | 3.88 µg/mL (≈ 8.44 µM) | 7.27 µM |
| CC(C)(C)C(=O)NC[C@H]1CN(c2ccc(N3CCCSCCC3)c(F)c2)C(=O)O1 [OTB-121, (S)—N-[[3-(3-Fluoro-4-(1,5-thiazocan-5-yl)phenyl)-2-oxo-oxazolidin-5-yl]methyl]pivalamide] | – | – | 2.79 µg/mL (≈ 6.58 µM) | 17.6 µM |
| CCCC(=O)OC[C@H]1CN(c2ccc(N3CCC[S+]([O-])CC3)c(F)c2)C(=O)O1 (stereo partly drawn) [OTB-126, [(5R)-3-[3-Fluoro-4-(1-oxido-1,4-thiazepan-4-yl)phenyl)-2-oxo-oxazolidin-5-yl]methyl butyrate] | – | – | 0.847 µg/mL (≈ 2.05 µM) | 35.6 µM |
| O=C(NC[C@H]1CN(c2ccc(N3CCC[S+]([O-])CC3)c(F)c2)C(=O)O1)c1ccco1 (stereo partly drawn) [OTB-127, N-[[(5S)-3-(3-Fluoro-4-(1-oxido-1,4-thiazepan-4-yl)phenyl)-2-oxo-oxazolidin-5-yl]methyl]furan-2-carboxamide] | – | – | 1.23 µg/mL (≈ 2.83 µM) | 10.2 µM |
| O=C1O[C@@H](Cn2ccnn2)CN1c1ccc(N2CCC[S+]([O-])CC2)c(F)c1 (stereo partly drawn) [OTB-137, (5R)-5-((1H-1,2,3-Triazol-1-yl)methyl)-3-(3-fluoro-4-(1-oxido-1,4-thiazepan-4-yl)phenyl)oxazolidin-2-one] | – | – | 0.277 µg/mL (≈ 0.704 µM) | 7.64 µM |
| O=C1O[C@@H](Cn2nccn2)CN1c1ccc(N2CCC[S+]([O-])CC2)c(F)c1 (stereo partly drawn) [OTB-138, (5R)-5-((2H-1,2,3-Triazol-2-yl)methyl)-3-(3-fluoro-4-(1-oxido-1,4-thiazepan-4-yl)phenyl)oxazolidin-2-one] | – | – | 7.57 µg/mL (≈ 19.2 µM) | > 100 µM |

— US11964949B2, “Substituted phenyloxazolidinones for antimicrobial therapy” (priority 2015, dated 2024)
